Series [1] relates to neutrophils. Briefly: Effect of KFP-tetramer / 16-KFP on neutrophil chemotaxis. The series is classed as cell-based, human. The source says:
(§1) A biotinylated KFP-tetramer multiantigen (designated 16-KFP) was generated in the same manner as the 16-LQI. In whole blood, 16-KFP bound ˜80% of human neutorophils and less than 10% of non-neutrophil WBC (FIG. 15A).

In series [2] the target is T1, CD177 (Homo sapiens, UniProt Q8N6Q3).
T1 construct: endogenous in cells; host or cells: human neutrophils from healthy donors, COPD patients and lung cancer patients
T1 sequence (Q8N6Q3 22-408): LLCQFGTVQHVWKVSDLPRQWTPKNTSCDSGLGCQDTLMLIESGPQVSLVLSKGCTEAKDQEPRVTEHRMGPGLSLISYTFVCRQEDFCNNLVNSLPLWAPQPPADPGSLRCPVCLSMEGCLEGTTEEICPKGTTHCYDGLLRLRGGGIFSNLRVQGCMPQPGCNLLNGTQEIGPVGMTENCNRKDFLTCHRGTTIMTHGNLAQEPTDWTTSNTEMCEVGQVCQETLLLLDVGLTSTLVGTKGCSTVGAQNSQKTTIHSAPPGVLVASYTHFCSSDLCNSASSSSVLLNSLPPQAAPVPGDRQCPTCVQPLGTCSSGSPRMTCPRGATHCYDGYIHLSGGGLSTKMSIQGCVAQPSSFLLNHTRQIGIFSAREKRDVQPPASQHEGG
Briefly: Correlation of CD177 expression and KFP-tetramer binding in donors. Conditions: healthy donors, patients with COPD and lung cancer patients. The source says:
FIGS. 22A-C: (22A) Bar graph of 16-KFP binding and CD177 expression of neutrophils of healthy donors (2, 6, 10), COPD patients (11, 12) and lung cancer patients (13). (22B) Line graph of correlation between CD177 expression and 16-KFP binding in different donors. (22C) Bare graph of binding of 16-KFP to neutrophils with increasing amounts of CD177 blocking antibody.
(§2) Similarly, the human CD177 was identified as a binding-partner of the peptides binding to human neutrophils (SEQ ID NOs: 1-8). […] Still, the extent of KFP-tetramer binding and CD177 levels fit well within the correlation plot and support the role of CD177 in mediating the binding of the KFP-tetramer to neutrophils (FIG. 22B).

Series [3] concerns neutrophils. Kind of series: Effect of KFP-tetramer / 16-KFP on neutrophil activation (ROS production). The series is classed as cell-based, human.
Source text: as §1

The subject of the next series is non-neutrophil WBC. Briefly: 16-KFP binding in whole blood. Details: species or system human. Particulars: healthy donor.
Source text: as §1

Series [4] relates to neutrophils. Briefly: Effect of KFP-tetramer / 16-KFP on neutrophil viability (microscopy, flow cytometry). The series is classed as cell-based, human.
The target in series [5] is T1, CD177. Briefly: Pull-down with KFP-tetramer as bait, mass spectrometry. The class given is binding.
Source text: as §2

A further series has as its system human neutrophils. Briefly: 16-KFP binding in whole blood. Conditions: healthy donor.
Source text: as §1

Series [6] deals with murine neutrophils (HDNs from 4T1-tumor bearing mice). Kind of series: Titration of binding to purified HDNs, flow cytometry. Details: species or system mouse. Conditions: tetramer-SA complex of control peptide. The procedure:
Analysis was performed by flow cytometry.
In general terms: Flow cytometry measures light scatter and fluorescence of single cells or particles in a stream.

Consider “(KFPDLDSRRLPHMSL (SEQ ID NO: 1) Doa-Doa-C)4-(Mpa)-4-Lys2-Lys-beta-Ala-Lys(Biotin)-beta-Ala-OH [KFP tetramer]”, for which the chemoattraction of neutrophils entry in the series on neutrophils [1] (FIG. 15E) was “not chemoattractive”. Moreover, the “effect on neutrophil attraction to CXCL2” value in the series on neutrophils [1] (FIG. 15F) was “no effect”. Moreover, on CD177 [2], the “correlation between CD177 expression and binding to neutrophils” value is “strong positive correlation”. Further, the “effect on neutrophil activation (ROS production, FIG. 15B)” value in the series on neutrophils [3] was “no effect”.
As to “16-KFP: biotinylated KFP-tetramer multiantigen generated in the same manner as 16-LQI; tetramer-SA complex used as control on murine neutrophils [Peptide 16-KFP]”, in the series with non-neutrophil WBC, the “non-neutrophil WBC bound” value is reported as “less than 10%”. Also, the “effect on neutrophil viability” value in the series on neutrophils [4] is on record as “no significant effect”. Also, the “effect on chemotactic properties” value with neutrophils [1] is “no significant effect”. In addition, the binding partner identified entry with CD177 [5] is given as “CD177 was identified as the binding partner”. Also, the human neutrophils bound with human neutrophils was roughly 80%. Also, in the series with neutrophils [3], the “effect on neutrophil activation (ROS production, FIG. 15B)” value is given as “no significant effect”. In series [6], the “binding to murine neutrophils” value is listed as “did not show binding”.

For the origin of these results see patent US11952431B2, “Neutrophil-binding peptides” (YISSUM RESEARCH DEVELOPMENT COMPANY OF THE HEBREW …, priority 2020, dated 2024).
